Test results as given in ChEMBL document CHEMBL5465560, “Selectivity Literature for EUbOPEN Chemogenomic Library” (2024).

Experiments:
[1] = target: T1, Membrane-associated tyrosine- and threonine-specific cdc2-inhibitory kinase (Homo sapiens) (UniProt Q99640); experiment: Selectivity interaction (KinomeScan (DiscoverX)) EUB0000092b PKMYT1; conditions: at 10 µM
T1 sequence (whole entry): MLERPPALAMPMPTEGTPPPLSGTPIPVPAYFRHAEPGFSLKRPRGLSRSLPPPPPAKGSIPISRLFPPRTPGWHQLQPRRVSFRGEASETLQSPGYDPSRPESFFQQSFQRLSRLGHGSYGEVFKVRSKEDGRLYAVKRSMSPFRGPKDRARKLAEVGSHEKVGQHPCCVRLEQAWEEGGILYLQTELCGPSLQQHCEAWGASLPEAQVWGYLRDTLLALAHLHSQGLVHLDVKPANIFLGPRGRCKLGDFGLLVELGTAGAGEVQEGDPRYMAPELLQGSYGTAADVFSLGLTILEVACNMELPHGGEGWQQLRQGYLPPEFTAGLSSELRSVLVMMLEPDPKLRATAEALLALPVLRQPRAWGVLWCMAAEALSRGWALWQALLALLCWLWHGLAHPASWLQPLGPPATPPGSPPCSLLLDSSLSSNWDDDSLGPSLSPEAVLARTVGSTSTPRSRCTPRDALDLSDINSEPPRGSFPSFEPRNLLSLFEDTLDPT

[2] = system: ALK tyrosine kinase receptor (Homo sapiens), Q9UM73 [C1156Y]; experiment: (§1) Selectivity interaction (ProQinase) EUB0000171b ALK
[3] = system: ALK tyrosine kinase receptor (Homo sapiens), Q9UM73 [F1174L]; experiment: as §1
[4] = system: ALK tyrosine kinase receptor (Homo sapiens), Q9UM73 [F1174S]; experiment: as §1
[5] = system: ALK tyrosine kinase receptor (Homo sapiens), Q9UM73 [L1196M]; experiment: as §1
[6] = system: ALK tyrosine kinase receptor (Homo sapiens), Q9UM73 [R1275Q]; experiment: as §1
[7] = target: ALK tyrosine kinase receptor (Homo sapiens, UniProt Q9UM73); experiment: as §1
[8] = target: T2, MAP/microtubule affinity-regulating kinase 4 (Homo sapiens) (UniProt Q96L34); experiment: Selectivity interaction (Kinase panel (KiNativ target engagement assay in Jurkat cells)) EUB0001635a MARK4; format: cell-based; conditions: Selectivity number of off-targets 0.0, Selectivity number of targets 233.0, Source Knowledge https://www.sciencedirect.com/science/article/pii/S2451945619300674?via%3Dihub, at 1 µM
T2 sequence (whole entry): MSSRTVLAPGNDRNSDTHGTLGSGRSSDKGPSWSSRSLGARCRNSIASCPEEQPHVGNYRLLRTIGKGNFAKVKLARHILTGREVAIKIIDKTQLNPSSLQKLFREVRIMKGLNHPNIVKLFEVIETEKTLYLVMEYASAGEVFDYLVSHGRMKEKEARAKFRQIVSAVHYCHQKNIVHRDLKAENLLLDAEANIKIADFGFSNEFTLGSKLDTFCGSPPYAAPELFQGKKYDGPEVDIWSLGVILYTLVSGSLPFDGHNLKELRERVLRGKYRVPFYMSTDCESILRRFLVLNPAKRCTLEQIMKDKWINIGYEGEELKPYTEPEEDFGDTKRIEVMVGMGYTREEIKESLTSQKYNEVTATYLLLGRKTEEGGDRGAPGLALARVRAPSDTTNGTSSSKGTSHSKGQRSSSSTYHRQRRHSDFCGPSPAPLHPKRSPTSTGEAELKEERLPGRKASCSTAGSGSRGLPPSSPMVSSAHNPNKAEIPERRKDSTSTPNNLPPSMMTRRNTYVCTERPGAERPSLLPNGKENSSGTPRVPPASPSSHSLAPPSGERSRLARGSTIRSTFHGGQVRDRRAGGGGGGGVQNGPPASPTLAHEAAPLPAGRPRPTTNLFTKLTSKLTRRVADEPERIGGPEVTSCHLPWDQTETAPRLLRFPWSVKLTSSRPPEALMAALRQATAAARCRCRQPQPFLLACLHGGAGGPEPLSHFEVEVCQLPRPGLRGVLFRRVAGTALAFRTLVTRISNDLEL

[9] = target: Interleukin-1 receptor-associated kinase 1 (Homo sapiens) (UniProt P51617); experiment: Selectivity interaction (KinomeScan (DiscoverX)) EUB0000666a IRAK1; conditions: at 10 µM
Activated CDC42 kinase 1 = Activated CDC42 kinase 1 (Homo sapiens, UniProt Q07912); experiment: Selectivity interaction (ActivX KiNativ screen (kinase selectivity in THP-1 cell lysates)) EUB0000639a TNK2; format: subcellular; conditions: lysate
[10] = target: Serine/threonine-protein kinase PRP4 homolog (Homo sapiens) (UniProt Q13523); experiment: Selectivity interaction (ActivX KiNativ screen (kinase selectivity in THP-1 cell lysates)) EUB0000639a PRPF4; format: subcellular; conditions: lysate, at 1 µM
[11] = target: T3, Phosphorylase b kinase gamma catalytic chain, liver/testis isoform (Homo sapiens) (UniProt P15735); experiment: Selectivity interaction (KinomeScan (DiscoverX)) EUB0000607a PHKG2; conditions: at 10 µM
T3 sequence (whole entry): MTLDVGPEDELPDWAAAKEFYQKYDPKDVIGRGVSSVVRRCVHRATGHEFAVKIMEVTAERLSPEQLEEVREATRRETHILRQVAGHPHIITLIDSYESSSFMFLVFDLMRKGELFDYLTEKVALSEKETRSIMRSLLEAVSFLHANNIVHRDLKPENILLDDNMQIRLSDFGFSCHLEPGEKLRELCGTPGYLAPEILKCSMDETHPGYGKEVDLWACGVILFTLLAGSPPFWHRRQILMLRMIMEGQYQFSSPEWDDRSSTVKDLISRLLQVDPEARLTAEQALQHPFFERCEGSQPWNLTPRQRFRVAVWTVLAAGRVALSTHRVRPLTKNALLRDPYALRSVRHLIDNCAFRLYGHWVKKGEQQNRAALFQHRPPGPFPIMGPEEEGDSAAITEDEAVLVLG

[12] = target: Ribosomal protein S6 kinase alpha-6 (Homo sapiens, UniProt Q9UK32); experiment: Selectivity interaction (KinomeScan (DiscoverX)) EUB0001049a RPS6KA6; conditions: at 1 µM
[13] = target: Serine/threonine-protein kinase 24 (Homo sapiens) (UniProt Q9Y6E0); experiment: Selectivity interaction (KinomeScan (DiscoverX)) EUB0001049a STK24; conditions: at 1 µM
[14] = target: Glycogen synthase kinase-3 beta (Homo sapiens, UniProt P49841); experiment: Selectivity interaction (Enzymatic assay) EUB0001199aCl GSK3B
[15] = target: Histone-lysine N-methyltransferase 2C (Homo sapiens) (UniProt Q8NEZ4); conditions: at 1 µM
[16] = target: Microtubule-associated serine/threonine-protein kinase 1 (Homo sapiens) (UniProt Q9Y2H9); experiment: Selectivity interaction (KinomeScan (DiscoverX)) EUB0001619a MAST1; conditions: at 1 µM

Chain of Activated CDC42 kinase 1 (Q07912 whole entry, looked up): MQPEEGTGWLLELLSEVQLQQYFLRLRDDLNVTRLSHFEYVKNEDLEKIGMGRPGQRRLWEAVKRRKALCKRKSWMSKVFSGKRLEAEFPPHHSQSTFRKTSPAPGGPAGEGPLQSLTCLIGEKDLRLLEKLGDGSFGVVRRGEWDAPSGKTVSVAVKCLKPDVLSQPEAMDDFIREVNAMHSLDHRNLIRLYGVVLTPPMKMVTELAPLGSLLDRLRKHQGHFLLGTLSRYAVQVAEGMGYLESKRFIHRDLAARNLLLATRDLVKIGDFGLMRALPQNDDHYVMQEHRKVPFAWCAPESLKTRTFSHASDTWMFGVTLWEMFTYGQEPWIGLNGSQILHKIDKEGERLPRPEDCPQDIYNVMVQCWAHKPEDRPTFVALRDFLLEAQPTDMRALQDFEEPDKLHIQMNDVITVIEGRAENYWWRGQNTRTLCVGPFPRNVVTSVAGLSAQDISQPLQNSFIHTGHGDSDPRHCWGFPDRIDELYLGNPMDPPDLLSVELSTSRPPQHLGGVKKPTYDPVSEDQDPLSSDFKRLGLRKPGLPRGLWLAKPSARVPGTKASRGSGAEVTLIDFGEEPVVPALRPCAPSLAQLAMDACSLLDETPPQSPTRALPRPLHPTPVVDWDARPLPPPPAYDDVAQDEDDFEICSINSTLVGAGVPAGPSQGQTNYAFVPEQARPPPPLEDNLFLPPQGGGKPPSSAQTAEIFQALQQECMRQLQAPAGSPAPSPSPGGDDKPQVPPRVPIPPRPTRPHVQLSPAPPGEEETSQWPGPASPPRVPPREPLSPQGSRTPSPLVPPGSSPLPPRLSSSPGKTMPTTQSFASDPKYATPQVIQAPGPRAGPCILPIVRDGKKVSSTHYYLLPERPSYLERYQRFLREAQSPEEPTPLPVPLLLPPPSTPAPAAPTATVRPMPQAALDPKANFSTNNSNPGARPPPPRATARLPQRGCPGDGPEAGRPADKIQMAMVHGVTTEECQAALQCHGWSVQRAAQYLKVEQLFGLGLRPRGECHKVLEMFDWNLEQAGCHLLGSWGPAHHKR
Chain of ALK tyrosine kinase receptor (Homo sapiens), Q9UM73 [F1174S] (Q9UM73 whole entry F1174S): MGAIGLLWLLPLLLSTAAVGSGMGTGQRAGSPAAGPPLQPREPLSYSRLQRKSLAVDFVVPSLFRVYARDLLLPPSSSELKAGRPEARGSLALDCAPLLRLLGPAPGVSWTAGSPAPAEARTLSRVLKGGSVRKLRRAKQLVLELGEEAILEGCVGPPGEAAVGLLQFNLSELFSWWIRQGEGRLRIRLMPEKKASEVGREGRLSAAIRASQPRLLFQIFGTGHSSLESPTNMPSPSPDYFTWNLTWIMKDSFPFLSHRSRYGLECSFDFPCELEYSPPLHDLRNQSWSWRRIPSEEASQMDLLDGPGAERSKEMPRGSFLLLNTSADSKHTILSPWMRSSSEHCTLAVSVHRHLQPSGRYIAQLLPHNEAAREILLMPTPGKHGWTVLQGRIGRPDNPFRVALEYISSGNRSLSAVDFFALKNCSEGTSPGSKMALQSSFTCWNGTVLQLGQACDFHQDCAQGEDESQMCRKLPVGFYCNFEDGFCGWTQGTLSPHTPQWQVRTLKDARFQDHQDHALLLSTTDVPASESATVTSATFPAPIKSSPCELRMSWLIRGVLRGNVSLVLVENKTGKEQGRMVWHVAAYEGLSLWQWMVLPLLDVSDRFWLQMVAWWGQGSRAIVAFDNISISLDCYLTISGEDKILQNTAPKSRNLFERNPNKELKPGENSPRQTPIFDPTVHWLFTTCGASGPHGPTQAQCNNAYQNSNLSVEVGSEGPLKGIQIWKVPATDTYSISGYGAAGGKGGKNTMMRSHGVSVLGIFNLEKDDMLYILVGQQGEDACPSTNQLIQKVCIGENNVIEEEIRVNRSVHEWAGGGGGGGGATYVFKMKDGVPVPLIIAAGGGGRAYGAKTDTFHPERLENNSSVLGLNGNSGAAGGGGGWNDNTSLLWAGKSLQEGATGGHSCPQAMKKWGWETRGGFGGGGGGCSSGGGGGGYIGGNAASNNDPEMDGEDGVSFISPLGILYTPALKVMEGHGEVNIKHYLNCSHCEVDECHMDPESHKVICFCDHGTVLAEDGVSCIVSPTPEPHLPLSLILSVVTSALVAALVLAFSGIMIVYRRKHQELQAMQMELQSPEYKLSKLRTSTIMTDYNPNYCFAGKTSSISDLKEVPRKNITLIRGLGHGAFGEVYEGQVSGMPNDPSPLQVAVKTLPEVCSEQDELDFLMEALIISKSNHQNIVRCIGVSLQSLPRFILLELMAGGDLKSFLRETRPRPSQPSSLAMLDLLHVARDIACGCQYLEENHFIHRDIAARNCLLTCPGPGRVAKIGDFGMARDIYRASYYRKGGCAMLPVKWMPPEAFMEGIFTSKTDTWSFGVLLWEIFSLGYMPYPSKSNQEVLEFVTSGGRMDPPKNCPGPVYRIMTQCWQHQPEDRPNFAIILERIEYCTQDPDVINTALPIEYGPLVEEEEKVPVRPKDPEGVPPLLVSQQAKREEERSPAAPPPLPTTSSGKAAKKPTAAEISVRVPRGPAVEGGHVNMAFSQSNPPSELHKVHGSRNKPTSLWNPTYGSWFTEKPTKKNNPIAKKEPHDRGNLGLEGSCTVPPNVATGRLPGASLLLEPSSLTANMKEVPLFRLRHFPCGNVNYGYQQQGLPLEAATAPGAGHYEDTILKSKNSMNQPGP
Chain of ALK tyrosine kinase receptor (Homo sapiens), Q9UM73 [C1156Y] (Q9UM73 whole entry C1156Y, looked up): as the sequence (Q9UM73 whole entry F1174S) above, with C1156Y, S1174F counted along it
Chain of ALK tyrosine kinase receptor (Homo sapiens), Q9UM73 [L1196M] (Q9UM73 whole entry L1196M, looked up): as the sequence (Q9UM73 whole entry F1174S) above, with S1174F, L1196M counted along it
Chain of ALK tyrosine kinase receptor (Q9UM73 19-1620 limits assumed): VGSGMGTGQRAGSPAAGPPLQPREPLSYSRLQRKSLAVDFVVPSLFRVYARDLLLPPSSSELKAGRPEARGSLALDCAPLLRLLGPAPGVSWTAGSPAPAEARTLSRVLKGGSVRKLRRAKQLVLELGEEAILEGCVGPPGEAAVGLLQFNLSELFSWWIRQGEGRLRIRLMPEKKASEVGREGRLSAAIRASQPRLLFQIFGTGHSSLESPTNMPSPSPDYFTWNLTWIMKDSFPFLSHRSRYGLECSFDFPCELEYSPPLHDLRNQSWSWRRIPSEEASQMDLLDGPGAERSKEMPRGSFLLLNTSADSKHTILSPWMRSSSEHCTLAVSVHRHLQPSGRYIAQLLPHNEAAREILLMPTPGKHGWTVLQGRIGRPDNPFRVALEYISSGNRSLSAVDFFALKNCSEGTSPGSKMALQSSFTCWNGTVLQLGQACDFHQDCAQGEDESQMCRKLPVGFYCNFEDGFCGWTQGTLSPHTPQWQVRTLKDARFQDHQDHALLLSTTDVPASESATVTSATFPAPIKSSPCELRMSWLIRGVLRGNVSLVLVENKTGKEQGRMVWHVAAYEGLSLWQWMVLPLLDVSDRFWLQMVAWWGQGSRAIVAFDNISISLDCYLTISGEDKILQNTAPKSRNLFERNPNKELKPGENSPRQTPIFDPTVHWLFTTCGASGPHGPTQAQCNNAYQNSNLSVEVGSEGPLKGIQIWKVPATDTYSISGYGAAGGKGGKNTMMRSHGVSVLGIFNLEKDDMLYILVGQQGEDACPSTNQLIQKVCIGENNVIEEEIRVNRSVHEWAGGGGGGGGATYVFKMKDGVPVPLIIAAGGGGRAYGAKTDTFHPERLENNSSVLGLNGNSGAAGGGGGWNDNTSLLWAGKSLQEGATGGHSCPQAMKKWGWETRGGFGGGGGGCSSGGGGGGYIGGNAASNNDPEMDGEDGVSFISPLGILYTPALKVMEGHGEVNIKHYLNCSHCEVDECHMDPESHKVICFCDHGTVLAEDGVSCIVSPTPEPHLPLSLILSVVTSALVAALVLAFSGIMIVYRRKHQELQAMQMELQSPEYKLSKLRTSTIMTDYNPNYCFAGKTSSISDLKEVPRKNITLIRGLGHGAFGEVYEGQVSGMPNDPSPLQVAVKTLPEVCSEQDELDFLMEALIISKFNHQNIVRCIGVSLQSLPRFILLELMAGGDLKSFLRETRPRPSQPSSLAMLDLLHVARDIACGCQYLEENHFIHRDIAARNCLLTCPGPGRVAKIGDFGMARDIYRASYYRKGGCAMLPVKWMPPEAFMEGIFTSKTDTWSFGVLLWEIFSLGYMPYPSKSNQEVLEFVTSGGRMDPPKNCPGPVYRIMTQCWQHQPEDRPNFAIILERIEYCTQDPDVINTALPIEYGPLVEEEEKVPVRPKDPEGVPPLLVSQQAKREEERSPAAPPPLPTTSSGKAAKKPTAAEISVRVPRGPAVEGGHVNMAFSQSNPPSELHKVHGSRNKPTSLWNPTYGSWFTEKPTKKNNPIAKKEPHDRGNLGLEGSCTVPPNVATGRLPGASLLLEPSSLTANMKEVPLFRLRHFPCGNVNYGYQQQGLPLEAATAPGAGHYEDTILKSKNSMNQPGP
Chain of ALK tyrosine kinase receptor (Homo sapiens), Q9UM73 [R1275Q] (Q9UM73 whole entry R1275Q): as the sequence (Q9UM73 whole entry F1174S) above, with S1174F, R1275Q counted along it
Chain of ALK tyrosine kinase receptor (Homo sapiens), Q9UM73 [F1174L] (Q9UM73 whole entry F1174L): as the sequence (Q9UM73 whole entry F1174S) above, with S1174L counted along it
Chain of Glycogen synthase kinase-3 beta (P49841 whole entry): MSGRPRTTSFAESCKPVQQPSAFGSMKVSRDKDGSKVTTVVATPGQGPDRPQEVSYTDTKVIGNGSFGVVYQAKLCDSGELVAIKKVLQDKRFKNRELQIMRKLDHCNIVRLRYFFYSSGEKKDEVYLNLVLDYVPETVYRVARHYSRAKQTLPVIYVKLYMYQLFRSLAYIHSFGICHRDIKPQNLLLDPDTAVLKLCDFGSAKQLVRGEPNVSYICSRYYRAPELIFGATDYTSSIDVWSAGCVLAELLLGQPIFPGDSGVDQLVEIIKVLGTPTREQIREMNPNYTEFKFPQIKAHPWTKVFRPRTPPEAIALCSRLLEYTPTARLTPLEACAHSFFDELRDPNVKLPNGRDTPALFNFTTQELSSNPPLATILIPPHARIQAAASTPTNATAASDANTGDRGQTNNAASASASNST

With CCC(=O)N1CCN(c2ccc(-n3c(=O)ccc4cnc5ccc(-c6cnc7ccccc7c6)cc5c43)cc2C(F)(F)F)CC1 the % of control [1] was 52%.

In the case of C=CC(=O)Nc1cccc(C(=O)Nc2ccc(Nc3cc(-c4[nH]c(SC)nc4C)ccn3)cc2)c1, the % of control ([2]; at 1 µM) is reported as 86%, the % of control ([2]; at 5 µM) is reported as 69% and the % of control ([3]; at 1 µM) is reported as 84%. The % of control ([3]; at 5 µM) was 74%, the % of control ([4]; at 1 µM) was 92% and the % of control ([4]; at 5 µM) was 72%. The % of control ([5]; at 1 µM) was 72%, the % of control ([5]; at 5 µM) was 55% and the % of control ([6]; at 1 µM) was 85%. For the same compound, the % of control ([6]; at 5 µM) was 73%, the % of control ([7]; at 1 µM) was 98% and the % of control ([7]; at 5 µM) was 72%.

C=CC(=O)Nc1ccc(C(=O)Nc2[nH]nc3c2CN(C(=O)N[C@H](CN(C)C)c2ccccc2)C3(C)C)cc1 gave a % of engagement [8] of 55.8%.

Work on O=C(NOC[C@H](O)CO)c1ccc(F)c(F)c1Nc1ccc(I)cc1F yielded a % of control [9] of 100%.

With CC[C@@H]1[C@H](F)C(=O)N[C@@H]1COc1nccc2cc(C(N)=O)c(OC)cc12 [ZIMLOVISERTIB] the % of inhibition (Activated CDC42 kinase 1; at 0.01 µM) was 1.7%, the % of inhibition (Activated CDC42 kinase 1; at 0.04 µM) was -15.5% and the % of inhibition (Activated CDC42 kinase 1; at 0.2 µM) was -11.3%. It also gave a % of inhibition (Activated CDC42 kinase 1; at 1 µM) of -19.1%, a % of inhibition (Activated CDC42 kinase 1; at 5 µM) of -20.6% and a % of inhibition [10] of 64.7%.

Work on CNC(=O)Nc1ccc(-c2nc(N3CC4CCC(C3)O4)c3cnn(C4CCC5(CC4)OCCO5)c3n2)cc1 yielded a % of control [11] of 96%.

For COc1cc(Nc2nc(C)cc(-c3cnn4nc(OC)ccc34)n2)cc(C(F)(F)F)c1, the % of control [12] was 70% and the % of control [13] was 76%.

Work on CN1Cc2nccc(-c3cn(C)nc3-c3ccc(F)cc3)c2C1=O yielded an IC50 [14] of 10 µM.

In the case of CNCCN1CCC(c2cc(CN(C)C(=O)c3cccc(Oc4ccccc4)c3)ccn2)CC1, the % activity [15] is reported as > 90%.

With N#Cc1cccc(-c2c[nH]c3ncnc(N4CCOCC4)c23)c1 the % of control [16] was 73%.
